In patent publication US10030064B2, “Mammalian cell culture processes for protein production” (priority 2009, dated 2018):

How the values were obtained:
Assay type in all cases: cell-based, Chinese hamster
[1] = system: CHO DG44 cell line expressing the fusion glycoprotein; assay: Shake flask CHO culture: total sialic acid content, N-linked and O-linked oligosaccharide profile of the secreted fusion glycoprotein
Description: The CHO cell line used in this study was originally subcloned from DG44 parental cells and cultured in a proprietary protein-free growth medium.
(§1) The experiments were carried out in 250-mL shake flasks (VWR international) with starting volumes of 100 mL and initial cell densities of 6×10^5 cells/mL. The cultures were placed on a shaker platform (VWR international) at 150 rpm and maintained at 37° C. and 6% CO2 for ten days. The cultures were sampled daily and the pH was adjusted as needed using 1M sodium carbonate and fed with glucose and glutamine every two days in order to maintain them at adequate levels. Cell density and viability were measured offline using a Cedex automated cell counter (Innovatis AG, Bielefeld, Germany). Culture pH and concentrations for glucose and glutamine were measured off-line using a Bioprofile Analyzer 400 (Nova Biomedical Corporation, Waltham, Mass.).
(§2) The sialic acid to recombinant protein molar ratio was calculated by determining the sialic acid and recombinant protein concentrations. Sialic acid (SA), including N-Acetylneuraminic (Neu5Ac) and N-glycolylneuraminic acid (Neu5Gc), was released by partial acid hydrolysis. The derivatives were then separated by reversed-phase HPLC to determine sialic acid content. The protein concentrations were determined by UV absorbance at 280 nm. Sialic acid content is reported as molar ratios, which is the total moles of Neu5Ac and Neu5Gc per mole of recombinant glycoprotein. Sialic acid contents are reported as normalized values, which are the actual values divided by an arbitrary value. The same divisor was used to normalize all sialic acid content data in the studies reported here.
(§3) High-pH anion-exchange chromatography with pulsed amperometric detection (HPAEC-PAD) was used for the profiling of N-linked oligosaccharides (Base and Spellman 1990; Townsend and Hardy 1991) to provide information on site-specific N-linked glycosylation. N-linked oligosaccharides were cleaved from protein and separated on HPAEC-PAD into four domains based on the amount of sialic acid present. Domain I represents the asialo species. Domains II, III, and IV are sialylated species and represent monosialylated, disialylated, and tri- and tetrasialylated species, respectively. N-linked sialylated species fraction is reported as the percentage of N-linked sialylated species within the total N-linked oligosaccharides species, which includes both asialo and sialylated species. N-linked sialylated species fractions are reported as normalized values, which are the actual values divided by an arbitrary value. The same divisor was used to normalize all N-linked sialylated species fraction data in the studies reported here.
O-linked glycosylation was characterized by intact mass analysis of a reference standard and Protein-A purified samples of the fusion protein (Reference). Samples were diluted in 100 mM Tris, 25 mM NaCl, pH 7.6 and incubated with PNGase F overnight to enzymatically remove all N-linked oligosaccharides. Samples were then injected for intact mass analysis after mixing with an internal standard of insulin. O-linked sialic acid content is reported as molar ratios, which is the moles of O-linked sialic acid per mole of recombinant glycoprotein.
This study was performed in duplicate 250-mL shake flasks using the culture conditions as described above. […] Cultures were harvested on day 10, and the fusion protein was purified using a protein A column and analyzed for total sialic acid content, O-linked sialic acid content and the N-linked profile.

CHO cells [2] = assay: Shake flask CHO culture: cell viability profile (Example 1); details: 1 μM DEX from day 2
Description: as §1

CHO cells [3] = assay: Fed-batch 5-L bioreactor CHO culture: sialic acid content and N-linked sialylated species fraction; details: 1 μM DEX bolus addition
Description: Bioreactor experiments were performed in 5-L bioreactors (Sartorius AG, Goettingen, Germany) with initial working volumes of 1.5 L. Agitation, pH, and dissolved oxygen were controlled at 150 rpm, 7.05, and 50% air saturation, respectively. Temperature was initially controlled at 37° C., but was shifted to a lower temperature during the culture to extend culture viability. The bioreactors were operated in fed-batch mode and were fed daily starting on day 3 with the proprietary feed medium to maintain adequate concentrations for glucose and other nutrients. Samples were taken during the cell culture process and analyzed for cell density, cell viability, substrates and metabolites.
as §2, §3
The bioreactors were operated as described in the methods section.

sialidase = assay: Sialidase activity in culture supernatant (Amplex Red Neuraminidase assay); details: 1 μM DEX from day 2, absorbance at 560 nm
Description: Sialidase activity was analyzed using the Amplex Red Neuraminidase (Sialidase) Assay Kit (Invitrogen, Carlsbad, Calif.). Briefly, neuraminidase in the sample is used to desialylate fetuin. This assay utilizes Amplex Red to detect H2O2 generated by oxidation of the desialylated galactose residues on the fetuin by galactose oxidase. The H2O2, in the presence of HRP, reacts stoichiometrically with Amplex Red reagent to generate the red-fluorescent oxidation product, resorufin 5, which is then analyzed either fluorometrically or spectrophotometrically. In each assay, 50 μL of working solution (100 μM Amplex Red, 0.2 U/mL HRP, 4 U/mL galactose oxidase and 500 μg/mL fetuin) was added into each microplate well containing 50 μL of diluted cell culture supernatant. After 30 minutes incubation at 37° C., samples were analyzed for absorbance at 560 nm using a microplate reader.
As shown in FIG. 2A and FIG. 2B, increased sialidase activity was associated with the decreased cell viabilities in both the DEX-treated and untreated cultures.

[4] = 0.1 μM DEX, with 1 μM RU-486 added 24 hours before DEX
[5] = DEX 0.01 μM added day 2, harvest day 10
[6] = DEX 0.1 μM added day 2, harvest day 10
[7] = DEX 1.0 μM added day 2, harvest day 10
[8] = DEX 10 μM added day 2, harvest day 10

C[C@@H]1C[C@H]2[C@@H]3CCC4=CC(=O)C=C[C@]4(C)[C@@]3(F)[C@@H](O)C[C@]2(C)[C@@]1(O)C(=O)CO [DEX, dexamethasone]
normalized N-linked sialylated species fraction [1, 4]: 81.5±0.8 | normalized total sialic acid content [1, 4]: 12.7±0.1 | normalized N-linked sialylated species fraction ([1]; 0.1 μM DEX, without RU-486): 92.2±2.0 | Percent increase of N-link asialo- [1, 5]: −8.6% | Percent increase of N-link-Di- [1, 5]: 13.9% | Percent increase of N-link-Mono- [1, 5]: 6.6% | Percent increase of N-link-Tri and tetra- [1, 5]: 4.5% | Percent increase of O-link SA [1, 5]: 0.0% | Percent increase of SA ([1]; DEX 0.01 μM added day 2, harvest day 10, vs control): 9.3% | Percent increase of N-link asialo- [1, 6]: −9.6% | Percent increase of N-link-Di- [1, 6]: 13.9% | Percent increase of N-link-Mono- [1, 6]: 7.3% | Percent increase of N-link-Tri and tetra- [1, 6]: 13.6% | Percent increase of O-link SA [1, 6]: 0.5% | Percent increase of SA ([1]; DEX 0.1 μM added day 2, harvest day 10, vs control): 13.0% | Percent increase of N-link asialo- [1, 7]: −10.0% | Percent increase of N-link-Di- [1, 7]: 19.4% | Percent increase of N-link-Mono- [1, 7]: 4.3% | Percent increase of O-link SA [1, 7]: 0.9% | Percent increase of SA ([1]; DEX 1.0 μM added day 2, harvest day 10, vs control): 13.0% | Percent increase of N-link asialo- [1, 8]: −15.6% | Percent increase of N-link-Di- [1, 8]: 24.3% | Percent increase of N-link-Mono- [1, 8]: 7.3% | Percent increase of N-link-Tri and tetra- [1, 8]: 20.5% | Percent increase of O-link SA [1, 8]: 0.0% | Percent increase of SA ([1]; DEX 10 μM added day 2, harvest day 10, vs control): 20.4% | Cell viability (CHO cells [2]; day 4): 98.0±0.1% | Cell viability (CHO cells [2]; day 10): 85.0±2.7% | change of sialylated fraction between days 8 to 14 (CHO cells [3]): −7.7% | change of total sialic acid content between days 8 to 14 (CHO cells [3]): −7.8% | normalized N-linked sialylated species fraction (CHO cells [3]; day 8): 97.7±0.9 | normalized total sialic acid content (CHO cells [3]; day 8): 17.9±0.1 | increase of N-linked sialylated species fraction vs control (CHO cells [3]; day 14): 15.8% | increase of total sialic acid content vs control (CHO cells [3]; day 14): 16.2% | normalized N-linked sialylated species fraction (CHO cells [3]; day 14): 90.2±1.3 | normalized total sialic acid content (CHO cells [3]; day 14): 16.5±0.1 | absorbance measurement of sialidase activity (sialidase; day 4): 0.006±0.002 | absorbance measurement of sialidase activity (sialidase; day 10): 0.024±0.003
